Holding throughout (format): biochemical
Conditions in all cases: wild-type un-phosphorylated protein; pre-incubated for 4 hours; ATP near or below Km

Experiment [1] deals with wild-type un-phosphorylated FGFR2 (Homo sapiens, UniProt P21802). As to the kind of experiment: FGFR Enzymatic Assay (FRET peptide phosphorylation), FGFR2. The procedure:
(§1) The inhibitor potency of the exemplified compounds was determined in an enzyme discontinuous assay that measures peptide phosphorylation using FRET measurements to detect product formation. Inhibitors were serially diluted in DMSO and a volume of 0.2 μL was transferred to the wells of a 384-well plate. […] Appropriate controls (enzyme blank and enzyme with no inhibitor) were included on the plate. […] The ATP Km values were pre-determined in a separate series of experiments. […] The plate was allowed to equilibrate for ˜10 minutes at ambient temperature before scanning on a PheraStar plate reader (BMG Labtech) instrument.
(§2) Either GraphPad prism or XLfit was used to analyze the data. The IC50 values were derived by fitting the data to a four parameter logistic equation producing a sigmoidal dose-response curve with a variable Hill coefficient. Prism equation: Y=Bottom+(Top−Bottom)/(1+10^((LogIC50−X)*Hill slope)); XLfit equation: Y=(A+((B−A)/(1+((X/C)^D)))) where X is the logarithm of inhibitor concentration and Y is the response.
The data in Table 1 was measured in wild-type un-phosphorylated FGFR1, FGFR2, FGFR3 and FGFR4 protein.

Experiment [2] deals with wild-type un-phosphorylated FGFR1 (Homo sapiens, UniProt P11362). As to the kind of experiment: FGFR Enzymatic Assay (FRET peptide phosphorylation), FGFR1. The procedure:
as §1, §2

Experiment [3] deals with wild-type un-phosphorylated FGFR3 (Homo sapiens, UniProt P22607). As to the kind of experiment: FGFR Enzymatic Assay (FRET peptide phosphorylation), FGFR3. How it is done:
as §1, §2

Structures are written as SMILES.

wild-type un-phosphorylated FGFR3, sequence (P22607 23-806): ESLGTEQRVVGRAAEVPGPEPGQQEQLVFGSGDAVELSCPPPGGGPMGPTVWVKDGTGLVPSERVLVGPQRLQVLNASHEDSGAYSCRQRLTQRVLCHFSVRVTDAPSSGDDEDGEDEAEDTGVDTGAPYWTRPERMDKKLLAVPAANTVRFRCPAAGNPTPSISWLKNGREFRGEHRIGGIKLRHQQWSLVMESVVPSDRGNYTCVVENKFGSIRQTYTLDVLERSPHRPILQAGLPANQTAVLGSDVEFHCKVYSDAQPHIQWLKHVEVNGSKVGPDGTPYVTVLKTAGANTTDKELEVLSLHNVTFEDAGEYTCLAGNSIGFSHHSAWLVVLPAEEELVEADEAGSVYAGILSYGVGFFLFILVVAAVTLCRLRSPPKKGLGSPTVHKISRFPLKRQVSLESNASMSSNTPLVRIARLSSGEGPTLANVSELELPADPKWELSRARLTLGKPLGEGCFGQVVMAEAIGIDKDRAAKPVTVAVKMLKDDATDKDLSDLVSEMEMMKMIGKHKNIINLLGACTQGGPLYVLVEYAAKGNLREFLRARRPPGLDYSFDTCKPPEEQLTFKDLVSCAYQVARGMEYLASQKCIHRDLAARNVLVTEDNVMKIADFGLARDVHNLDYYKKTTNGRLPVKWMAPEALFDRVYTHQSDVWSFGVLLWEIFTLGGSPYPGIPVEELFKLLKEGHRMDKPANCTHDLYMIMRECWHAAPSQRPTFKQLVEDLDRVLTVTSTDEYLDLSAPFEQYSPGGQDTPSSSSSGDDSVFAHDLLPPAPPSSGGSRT
wild-type un-phosphorylated FGFR1, sequence (P11362 22-822): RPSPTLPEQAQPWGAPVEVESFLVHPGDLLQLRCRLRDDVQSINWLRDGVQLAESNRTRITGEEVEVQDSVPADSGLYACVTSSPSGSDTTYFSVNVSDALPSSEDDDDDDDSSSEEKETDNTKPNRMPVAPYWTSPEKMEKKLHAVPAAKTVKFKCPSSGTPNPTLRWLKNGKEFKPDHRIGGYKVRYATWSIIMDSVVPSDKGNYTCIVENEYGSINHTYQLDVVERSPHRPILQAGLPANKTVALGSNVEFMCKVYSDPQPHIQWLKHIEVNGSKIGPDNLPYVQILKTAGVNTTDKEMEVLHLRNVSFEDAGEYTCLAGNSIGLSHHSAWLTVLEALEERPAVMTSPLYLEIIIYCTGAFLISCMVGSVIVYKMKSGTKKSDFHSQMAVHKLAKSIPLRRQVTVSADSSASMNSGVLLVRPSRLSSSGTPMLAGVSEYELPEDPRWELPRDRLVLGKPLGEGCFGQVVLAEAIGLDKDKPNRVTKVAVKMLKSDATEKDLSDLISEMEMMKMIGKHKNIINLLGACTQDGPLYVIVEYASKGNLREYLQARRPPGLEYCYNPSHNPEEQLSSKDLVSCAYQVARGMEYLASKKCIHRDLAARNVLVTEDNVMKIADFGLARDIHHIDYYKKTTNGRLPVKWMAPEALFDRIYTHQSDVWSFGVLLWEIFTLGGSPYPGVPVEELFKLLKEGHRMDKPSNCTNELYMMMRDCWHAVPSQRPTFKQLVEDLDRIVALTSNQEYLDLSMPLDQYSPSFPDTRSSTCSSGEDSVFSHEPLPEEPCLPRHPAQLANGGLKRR
wild-type un-phosphorylated FGFR2, sequence (P21802 22-821): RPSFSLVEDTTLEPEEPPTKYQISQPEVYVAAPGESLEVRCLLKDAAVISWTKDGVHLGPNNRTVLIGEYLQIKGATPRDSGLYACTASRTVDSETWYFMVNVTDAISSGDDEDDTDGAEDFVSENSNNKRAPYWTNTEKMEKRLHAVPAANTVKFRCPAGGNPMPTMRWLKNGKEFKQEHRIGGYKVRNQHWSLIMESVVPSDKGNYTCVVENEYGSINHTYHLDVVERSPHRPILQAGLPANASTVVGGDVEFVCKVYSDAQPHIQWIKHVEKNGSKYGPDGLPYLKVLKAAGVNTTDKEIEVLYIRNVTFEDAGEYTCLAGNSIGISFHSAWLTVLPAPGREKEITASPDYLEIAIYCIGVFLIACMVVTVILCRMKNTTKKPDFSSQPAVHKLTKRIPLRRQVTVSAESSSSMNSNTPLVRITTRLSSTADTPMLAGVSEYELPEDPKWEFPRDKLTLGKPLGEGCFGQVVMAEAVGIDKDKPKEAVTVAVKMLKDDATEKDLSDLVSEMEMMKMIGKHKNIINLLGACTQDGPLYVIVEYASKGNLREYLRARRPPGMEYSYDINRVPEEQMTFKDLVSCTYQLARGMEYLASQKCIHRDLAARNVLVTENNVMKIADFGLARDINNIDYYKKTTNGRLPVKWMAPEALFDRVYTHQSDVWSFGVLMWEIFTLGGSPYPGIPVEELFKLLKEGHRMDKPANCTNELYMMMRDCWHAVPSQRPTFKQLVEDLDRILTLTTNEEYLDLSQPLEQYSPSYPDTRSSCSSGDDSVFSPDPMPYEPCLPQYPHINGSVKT

`CNC(=O)c1cc(F)c(F)c(-c2cnc3cc(-c4cnn(C)c4)c(N[C@H]4CCOC4)nn23)c1` [Example 19, (S)-3,4-Difluoro-N-methyl-5-(7-(1-methyl-1H-pyrazol-4-yl)-6-((tetrahydrofuran-3-yl)amino)imidazo[1,2-b]pyridazin-3-yl)benzamide]: the values for the half-maximal inhibitory concentration (IC50) in experiment [1], in experiment [2] and in experiment [3] were less than 10 nM, 10 to 100 nM and less than 10 nM, respectively.

For `CNC(=O)c1cc(F)c(F)c(-c2cnc3cc(-c4cnn(C)c4)c(OCCOC)nn23)c1` [Example 20, 3,4-Difluoro-5-(6-(2-methoxyethoxy)-7-(1-methyl-1H-pyrazol-4-yl)imidazo[1,2-b]pyridazin-3-yl)-N-methylbenzamide], the results for the half-inhibitory concentration (IC50) in experiment [1], in experiment [2] and in experiment [3] were less than 10 nM, 10 to 100 nM and less than 10 nM, respectively.

As to `CNC(=O)c1cc(F)c(F)c(-c2cnc3cc(-c4ccc(C)nc4)c(O[C@H]4CCOC4)nn23)c1` [Example 21, (S)-3,4-Difluoro-N-methyl-5-(7-(6-methylpyridin-3-yl)-6-((tetrahydrofuran-3-yl)oxy)imidazo[1,2-b]pyridazin-3-yl)benzamide], the 50% inhibitory concentration (IC50) was 10 to 100 nM in experiment [1], 100 to 400 nM in experiment [2] and less than 10 nM in experiment [3].

For `CNC(=O)c1cc(F)c(F)c(-c2cnc3cc(-c4cnn(C5COC5)c4)c(O[C@H]4CCOC4)nn23)c1` [Example 23, (S)-3,4-Difluoro-N-methyl-5-(7-(1-(oxetan-3-yl)-1H-pyrazol-4-yl)-6-((tetrahydrofuran-3-yl)oxy)imidazo[1,2-b]pyridazin-3-yl)benzamide], the IC50 in experiment [1] is less than 10 nM; in experiment [2], 10 to 100 nM; in experiment [3] it was less than 10 nM.

`CNC(=O)c1cc(F)c(F)c(-c2cnc3cc(-c4cnn(C(C)C)c4)c(O[C@H]4CCOC4)nn23)c1` [Example 24, (S)-3,4-Difluoro-5-(7-(1-isopropyl-1H-pyrazol-4-yl)-6-((tetrahydrofuran-3-yl)oxy)imidazo[1,2-b]pyridazin-3-yl)-N-methylbenzamide]: the IC50 in experiment [1], in experiment [2] and in experiment [3] was less than 10 nM in each case.

Turning to `CNC(=O)c1cc(F)c(F)c(-c2cnc3cc(-c4cnn(C5CCC5)c4)c(O[C@H]4CCOC4)nn23)c1` [Example 25, (S)-3-(7-(1-Cyclobutyl-1H-pyrazol-4-yl)-6-((tetrahydrofuran-3-yl)oxy)imidazo[1,2-b]pyridazin-3-yl)-4,5-difluoro-N-methylbenzamide], the IC50 in experiment [1], in experiment [2] and in experiment [3] was less than 10 nM throughout.

Take `CNC(=O)c1cc(-c2cnc3cc(-c4cnn(C(C)(C)C#N)c4)c(O[C@H]4CCOC4)nn23)c(F)c(C(F)F)c1` [Example 26, (S)-3-(7-(1-(2-Cyanopropan-2-yl)-1H-pyrazol-4-yl)-6-((tetrahydrofuran-3-yl)oxy)imidazo[1,2-b]pyridazin-3-yl)-5-(difluoromethyl)-4-fluoro-N-methylbenzamide]: the 50% inhibitory concentration (IC50) in experiment [1] is less than 10 nM; in experiment [2], 10 to 100 nM; in experiment [3], less than 10 nM.

For `CNC(=O)c1cc(-c2cnc3cc(-c4cnn5ccccc45)c(O[C@H]4CCOC4)nn23)c(F)c(C(F)F)c1` [Example 27, (S)-3-(Difluoromethyl)-4-fluoro-N-methyl-5-(7-(pyrazolo[1,5-a]pyridin-3-yl)-6-((tetrahydrofuran-3-yl)oxy)imidazo[1,2-b]pyridazin-3-yl)benzamide], the concentration for half-maximal inhibition (IC50) in experiment [1], in experiment [2] and in experiment [3] was 10 to 100 nM in each case.

`CNC(=O)c1cc(-c2cnc3cc(-c4cnn5c4CNCC5)c(O[C@H]4CCOC4)nn23)c(F)c(C(F)F)c1` [Example 28, (S)-3-(Difluoromethyl)-4-fluoro-N-methyl-5-(6-((tetrahydrofuran-3-yl)oxy)-7-(4,5,6,7-tetrahydropyrazolo[1,5-a]pyrazin-3-yl)imidazo[1,2-b]pyridazin-3-yl)benzamide]: the IC50 in experiment [1] is 10 to 100 nM; in experiment [2], not below 400 nM; in experiment [3], 10 to 100 nM.

Turning to `CNC(=O)c1cc(-c2cnc3cc(-c4cnn(Cc5cccnc5)c4)c(O[C@H]4CCOC4)nn23)c(F)c(C(F)F)c1` [Example 29, (S)-3-(Difluoromethyl)-4-fluoro-N-methyl-5-(7-(1-(pyridin-3-ylmethyl)-1H-pyrazol-4-yl)-6-((tetrahydrofuran-3-yl)oxy)imidazo[1,2-b]pyridazin-3-yl)benzamide], the IC50 in experiment [1] was less than 10 nM; in experiment [2], 10 to 100 nM; in experiment [3], less than 10 nM.

For `CNC(=O)c1cc(-c2cnc3cc(-c4ccc(C)c(C#N)c4)c(O[C@H]4CCOC4)nn23)c(F)c(C(F)F)c1` [Example 31, (S)-3-(7-(3-Cyano-4-methylphenyl)-6-((tetrahydrofuran-3-yl)oxy)imidazo[1,2-b]pyridazin-3-yl)-5-(difluoromethyl)-4-fluoro-N-methylbenzamide], the IC50 was 10 to 100 nM in experiment [1], not below 400 nM in experiment [2] and 10 to 100 nM in experiment [3].

On to `CNC(=O)c1cc(-c2cnc3cc(-c4ccc(N5CCCC5)nc4)c(O[C@H]4CCOC4)nn23)c(F)c(C(F)F)c1` [Example 32, (S)-3-(Difluoromethyl)-4-fluoro-N-methyl-5-(7-(6-(pyrrolidin-1-yl)pyridin-3-yl)-6-((tetrahydrofuran-3-yl)oxy)imidazo[1,2-b]pyridazin-3-yl)benzamide], for which the IC50 in experiment [1] is less than 10 nM; in experiment [2], 100 to 400 nM; in experiment [3] it was less than 10 nM.

In the case of `CNC(=O)c1cc(-c2cnc3cc(-c4ccc(N5CCCC5=O)nc4)c(O[C@H]4CCOC4)nn23)c(F)c(C(F)F)c1` [Example 33, (S)-3-(Difluoromethyl)-4-fluoro-N-methyl-5-(7-(6-(2-oxopyrrolidin-1-yl)pyridin-3-yl)-6-((tetrahydrofuran-3-yl)oxy)imidazo[1,2-b]pyridazin-3-yl)benzamide], the 50% inhibitory concentration (IC50) is 10 to 100 nM in experiment [1], 100 to 400 nM in experiment [2] and less than 10 nM in experiment [3].

In the case of `CNC(=O)c1cc(-c2cnc3cc(-c4cnn([C@H]5CC[C@H](O)CC5)c4)c(O[C@H]4CCOC4)nn23)c(F)c(C(F)F)c1` [Example 34, 3-(Difluoromethyl)-4-fluoro-5-(7-(1-((1r,4S)-4-hydroxycyclohexyl)-1H-pyrazol-4-yl)-6-(((S)-tetrahydrofuran-3-yl)oxy)imidazo[1,2-b]pyridazin-3-yl)-N-methylbenzamide], the 50% inhibitory concentration (IC50) in experiment [1], in experiment [2] and in experiment [3] was less than 10 nM each time.

For the compound `CNC(=O)c1cc(-c2cnc3cc(-c4ccc(C(C)(C)O)nc4)c(O[C@H]4CCOC4)nn23)c(F)c(C(F)F)c1` [Example 35, (S)-3-(Difluoromethyl)-4-fluoro-5-(7-(6-(2-hydroxypropan-2-yl)pyridin-3-yl)-6-((tetrahydrofuran-3-yl)oxy)imidazo[1,2-b]pyridazin-3-yl)-N-methylbenzamide], the IC50 is 10 to 100 nM in experiment [1], 100 to 400 nM in experiment [2] and less than 10 nM in experiment [3].

For `CNC(=O)c1cc(-c2cnc3cc(-c4ccc(C(=O)NC)c(F)c4)c(O[C@H]4CCOC4)nn23)c(F)c(C(F)F)c1` [Example 36, (S)-3-(Difluoromethyl)-4-fluoro-5-(7-(3-fluoro-4-(methylcarbamoyl)phenyl)-6-((tetrahydrofuran-3-yl)oxy)imidazo[1,2-b]pyridazin-3-yl)-N-methylbenzamide], the 50% inhibitory concentration (IC50) in experiment [1] fell in the range of 10 to 100 nM; in experiment [2] it was 100 to 400 nM; in experiment [3], 10 to 100 nM.

In the case of `CNC(=O)c1cc(CO)c(F)c(-c2cnc3cc(-c4cnn(C)c4)c(O[C@H]4CCOC4)nn23)c1` [Example 40, (S)-4-Fluoro-3-(hydroxymethyl)-N-methyl-5-(7-(1-methyl-1H-pyrazol-4-yl)-6-((tetrahydrofuran-3-yl)oxy)imidazo[1,2-b]pyridazin-3-yl)benzamide], the IC50 was less than 10 nM in experiment [1], 10 to 100 nM in experiment [2] and less than 10 nM in experiment [3].

With `CNC(=O)c1cc(CC#N)c(F)c(-c2cnc3cc(-c4cnn(C)c4)c(O[C@H]4CCOC4)nn23)c1` [Example 44, (S)-3-(Cyanomethyl)-4-fluoro-N-methyl-5-(7-(1-methyl-1H-pyrazol-4-yl)-6-((tetrahydrofuran-3-yl)oxy)imidazo[1,2-b]pyridazin-3-yl)benzamide], the IC50 was 10 to 100 nM in experiment [1], 100 to 400 nM in experiment [2] and less than 10 nM in experiment [3].

For `CNC(=O)c1cc(CN2CCCC2)c(F)c(-c2cnc3cc(-c4cnn(C)c4)c(O[C@H]4CCOC4)nn23)c1` [Example 45, (S)-4-Fluoro-N-methyl-3-(7-(1-methyl-1H-pyrazol-4-yl)-6-((tetrahydrofuran-3-yl)oxy)imidazo[1,2-b]pyridazin-3-yl)-5-(pyrrolidin-1-ylmethyl)benzamide], the IC50 in experiment [1], in experiment [2] and in experiment [3] was 10 to 100 nM throughout.

As for `CNC(=O)c1cccc(-c2cnc3cc(-c4cnn(C)c4)c(O[C@H]4CCOC4)nn23)c1` [Example 63, (S)-N-Methyl-3-(7-(1-methyl-1H-pyrazol-4-yl)-6-((tetrahydrofuran-3-yl)oxy)imidazo[1,2-b]pyridazin-3-yl)benzamide], the 50% inhibitory concentration (IC50) in experiment [1] was less than 10 nM.

In general, IC50 refers to the concentration that gives 50% inhibition. Lower therefore signals higher potency.

Values taken from patent publication US12012409B2, “Bicyclic heterocycles as FGFR inhibitors” (Incyte Corporation, priority 2020, dated 2024).
